Source: patent publication US11946041B2, “Modification of polypeptides” (BicycleRD Limited, priority 2017, dated 2024)
One block for each sequence: values may come before it.

Experiments:
CCR4 [1] = biological target: T1, CCR4 (Homo sapiens, UniProt P51679); test: PathHunter eXpress CCR4 CHO-K1 β-Arrestin GPCR Assay, agonist format; format: cell-based
T1 construct: host or cells: CHO-K1
T1 sequence (P51679 1-360): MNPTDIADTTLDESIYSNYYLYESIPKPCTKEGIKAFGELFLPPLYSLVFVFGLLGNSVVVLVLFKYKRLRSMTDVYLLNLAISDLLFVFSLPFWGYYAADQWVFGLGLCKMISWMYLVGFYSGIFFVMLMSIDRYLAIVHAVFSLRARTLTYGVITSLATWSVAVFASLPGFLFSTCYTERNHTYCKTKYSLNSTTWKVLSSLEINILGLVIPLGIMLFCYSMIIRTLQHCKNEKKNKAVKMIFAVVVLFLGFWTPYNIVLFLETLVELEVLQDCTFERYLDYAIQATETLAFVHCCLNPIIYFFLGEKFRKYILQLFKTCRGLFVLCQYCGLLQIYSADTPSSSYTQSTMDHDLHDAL
Experimental: (§1) The aim of the present experiment was to analyze if if these peptides are functional using a Discoverx Assay, the Beta-Arrestin recruitment assay, to identify agonism or antagonism in the selected peptides.
(§2) Standard protocols used: • PathHunter® eXpress CCR4 CHO-K1 β-Arrestin GPCR Assay. 100 dp (1×96-well)
(§3) The experiment was carried using the manufacturer instructions.
The concentration was increased to test for response at high concentration.

CCR4 [2] = biological target: T1, CCR4; test: PathHunter eXpress CCR4 CHO-K1 β-Arrestin GPCR Assay, antagonist format with CCL22; format: cell-based
Experimental: as §1, §2, §3
We therefore used the assay in an antagonist format, using 10 nM CCL22.
We repeated this experiment lowering the concentration of CCL22 from 10 nM to 1 nM to show a full inhibition curve.

Raw Data (CCR4 [1]; 0.006 nM): 27634 | Raw Data (CCR4 [1]; 0.02 nM): 30705 | Raw Data (CCR4 [1]; 0.06 nM): 30335 | Raw Data (CCR4 [1]; 0.17 nM): 31512 | Raw Data (CCR4 [1]; 0.51 nM): 31217 | Raw Data (CCR4 [1]; 1.5 nM): 34513 | Raw Data (CCR4 [1]; 4.6 nM): 29431 | Raw Data (CCR4 [1]; 13.9 nM): 24436 | Raw Data (CCR4 [1]; 41.7 nM): 23071 | Raw Data (CCR4 [1]; 125 nM): 22524 | Raw Data (CCR4 [1]; 375 nM): 20081 | Raw Data (CCR4 [1]; high concentration, 0.001 uM): 11252 | Raw Data (CCR4 [1]; high concentration, 0.003 uM): 11640 | Raw Data (CCR4 [1]; high concentration, 0.008 uM): 12612 | Raw Data (CCR4 [1]; high concentration, 0.023 uM): 12684 | Raw Data (CCR4 [1]; high concentration, 0.1 uM): 13168 | Raw Data (CCR4 [1]; high concentration, 0.2 uM): 13560 | Raw Data (CCR4 [1]; high concentration, 0.6 uM): 12989 | Raw Data (CCR4 [1]; high concentration, 1.9 uM): 12391 | Raw Data (CCR4 [1]; high concentration, 5.6 uM): 12460 | Raw Data (CCR4 [1]; high concentration, 16.7 uM): 12506 | Raw Data (CCR4 [1]; high concentration, 50 uM): 11512 | Raw Data (CCR4 [2]; 1 nM CCL22, 0.001 uM): 229814 | Raw Data (CCR4 [2]; 1 nM CCL22, 0.003 uM): 230497 | Raw Data (CCR4 [2]; 1 nM CCL22, 0.008 uM): 210841 | Raw Data (CCR4 [2]; 1 nM CCL22, 0.023 uM): 219415 | Raw Data (CCR4 [2]; 1 nM CCL22, 0.1 uM): 218869 | Raw Data (CCR4 [2]; 1 nM CCL22, 0.2 uM): 228712 | Raw Data (CCR4 [2]; 1 nM CCL22, 0.6 uM): 229977 | Raw Data (CCR4 [2]; 1 nM CCL22, 1.9 uM): 190843 | Raw Data (CCR4 [2]; 1 nM CCL22, 5.6 uM): 200574 | Raw Data (CCR4 [2]; 1 nM CCL22, 16.7 uM): 156536 | Raw Data (CCR4 [2]; 1 nM CCL22, 50 uM): 114497 | Raw Data (CCR4 [2]; 10 nM CCL22, 0.001 uM): 195228 | Raw Data (CCR4 [2]; 10 nM CCL22, 0.003 uM): 200825 | Raw Data (CCR4 [2]; 10 nM CCL22, 0.008 uM): 201223 | Raw Data (CCR4 [2]; 10 nM CCL22, 0.023 uM): 183445 | Raw Data (CCR4 [2]; 10 nM CCL22, 0.1 uM): 170995 | Raw Data (CCR4 [2]; 10 nM CCL22, 0.2 uM): 195355 | Raw Data (CCR4 [2]; 10 nM CCL22, 0.6 uM): 181254 | Raw Data (CCR4 [2]; 10 nM CCL22, 1.9 uM): 194535 | Raw Data (CCR4 [2]; 10 nM CCL22, 5.6 uM): 180947 | Raw Data (CCR4 [2]; 10 nM CCL22, 16.7 uM): 179127 | Raw Data (CCR4 [2]; 10 nM CCL22, 50 uM): 133745
Sequence: ACPLMSSVNCTAGCA [24-13-00-N001, bicyclic peptide ligand, TBMB scaffold, from CCR4 cell-based selection]

Raw Data (CCR4 [1]; 0.006 nM): 28566 | Raw Data (CCR4 [1]; 0.02 nM): 27298 | Raw Data (CCR4 [1]; 0.06 nM): 26888 | Raw Data (CCR4 [1]; 0.17 nM): 28025 | Raw Data (CCR4 [1]; 0.51 nM): 31189 | Raw Data (CCR4 [1]; 1.5 nM): 30670 | Raw Data (CCR4 [1]; 4.6 nM): 27635 | Raw Data (CCR4 [1]; 13.9 nM): 25509 | Raw Data (CCR4 [1]; 41.7 nM): 24463 | Raw Data (CCR4 [1]; 125 nM): 22916 | Raw Data (CCR4 [1]; 375 nM): 24222 | Raw Data (CCR4 [1]; high concentration, 0.001 uM): 10900 | Raw Data (CCR4 [1]; high concentration, 0.003 uM): 11501 | Raw Data (CCR4 [1]; high concentration, 0.008 uM): 12079 | Raw Data (CCR4 [1]; high concentration, 0.023 uM): 12121 | Raw Data (CCR4 [1]; high concentration, 0.1 uM): 13265 | Raw Data (CCR4 [1]; high concentration, 0.2 uM): 13225 | Raw Data (CCR4 [1]; high concentration, 0.6 uM): 13586 | Raw Data (CCR4 [1]; high concentration, 1.9 uM): 13457 | Raw Data (CCR4 [1]; high concentration, 5.6 uM): 13067 | Raw Data (CCR4 [1]; high concentration, 16.7 uM): 13469 | Raw Data (CCR4 [1]; high concentration, 50 uM): 10917 | range of antagonism activity (CCR4 [2]): micromolar range | antagonist for CCR4 (CCR4 [2]; 1 nM CCL22): antagonist | Raw Data (CCR4 [2]; 1 nM CCL22, 0.001 uM): 244512 | Raw Data (CCR4 [2]; 1 nM CCL22, 0.003 uM): 269008 | Raw Data (CCR4 [2]; 1 nM CCL22, 0.008 uM): 278839 | Raw Data (CCR4 [2]; 1 nM CCL22, 0.023 uM): 265078 | Raw Data (CCR4 [2]; 1 nM CCL22, 0.1 uM): 267763 | Raw Data (CCR4 [2]; 1 nM CCL22, 0.2 uM): 233858 | Raw Data (CCR4 [2]; 1 nM CCL22, 0.6 uM): 230668 | Raw Data (CCR4 [2]; 1 nM CCL22, 1.9 uM): 210573 | Raw Data (CCR4 [2]; 1 nM CCL22, 5.6 uM): 168855 | Raw Data (CCR4 [2]; 1 nM CCL22, 16.7 uM): 47343 | Raw Data (CCR4 [2]; 1 nM CCL22, 50 uM): 37690 | IC80 (CCR4 [2]; 10 nM CCL22): 14 µM | Raw Data (CCR4 [2]; 10 nM CCL22, 0.001 uM): 166495 | Raw Data (CCR4 [2]; 10 nM CCL22, 0.003 uM): 152456 | Raw Data (CCR4 [2]; 10 nM CCL22, 0.008 uM): 159966 | Raw Data (CCR4 [2]; 10 nM CCL22, 0.023 uM): 163145 | Raw Data (CCR4 [2]; 10 nM CCL22, 0.1 uM): 162443 | Raw Data (CCR4 [2]; 10 nM CCL22, 0.2 uM): 160790 | Raw Data (CCR4 [2]; 10 nM CCL22, 0.6 uM): 164042 | Raw Data (CCR4 [2]; 10 nM CCL22, 1.9 uM): 149995 | Raw Data (CCR4 [2]; 10 nM CCL22, 5.6 uM): 119202 | Raw Data (CCR4 [2]; 10 nM CCL22, 16.7 uM): 94688 | Raw Data (CCR4 [2]; 10 nM CCL22, 50 uM): 55746
Sequence: ACQLTCLPPPRQPGCA [24-15-00-N001, bicyclic peptide ligand, TATA scaffold, from CCR4 cell-based selection]
